Reference: patent publication US20240368181A1, “QUINOXALINE DERIVATIVES AND USES THEREOF” (Black Diamond Therapeutics, Inc., priority 2021, published 2024)

Assays:
Type in all cases: cell-based
[1] = tested on: UM-UC-14 (FGFR3-S249C) cells; test: Cell proliferation assay (CellTiterGlo), UM-UC-14 cells; settings: UMUC14, 72 h, inhibition of cell growth, intracellular ATP (CellTiterGlo)
Excerpt: (§1) The following is a non-limiting example that describes a cell proliferation assay used to determine the biological activity of the compounds of the present disclosure. More specifically, the assay as used to assess the ability of the compounds to inhibit cell proliferation.
(§2) Briefly, SNU-16 (FGFR2-amplification) cells, were resuspended at 18,520c/ml mL in RPMI containing 10% Heat Inactivated FBS, 1% L-glutamine and dispensed in duplicate (463c/well) into 384 well plates. UM-UC-14 (FGFR3-S249C) cells were resuspended at 40.000c/ml mL in RPMI containing 10% Heat Inactivated FBS, 1% L-glutamine and dispensed in duplicate (1000c/well) into 384 well plates. DMS-114 (FGFR1 overexpression) cells and were resuspended at 40,000c/ml mL in RPMI containing 10% Heat Inactivated FBS, 1% L-glutamine and dispensed in duplicate (1000c/well) into 384 well plates. RT-112 (FGFR3-Tacc3 fusion) cells were resuspended at 40,000c/ml mL in RPMI containing 10% Heat Inactivated FBS, 1% L-glutamine and dispensed in duplicate (1000c/well) into 384 well plates. To determine the effect of the compounds of the present disclosure on cell proliferation, SNU-16, UM-UC-14, DMS-114 and RT112 cells were incubated for 72 hours in the presence of vehicle control (DMSO) or a compound of the present disclosure at varying concentrations. Inhibition of cell growth was subsequently determined by luminescent quantification (Envision by Perkin Elmer) of intracellular ATP content using CellTiterGlo (Promega), according to the protocol provided by the manufacturer. To determine the IC50 values, the vehicle-treated cells were normalized as viable cells and analyzed using the CDD Vault software (Collaborative Drug Discovery, Burlingame, CA).

[2] = tested on: DMS-114 (FGFR1 overexpression) cells; test: Cell proliferation assay (CellTiterGlo), DMS-114 cells; settings: Homo sapiens, 72 hours, inhibition of cell growth, intracellular ATP (CellTiterGlo)
Excerpt: as §1, §2

[3] = tested on: RT-112 (FGFR3-Tacc3 fusion) cells; test: Cell proliferation assay (CellTiterGlo), RT-112 cells; settings: Homo sapiens, RT-112, 72 h, RT112 cells, inhibition of cell growth, intracellular ATP (CellTiterGlo)
Excerpt: as §1, §2

[4] = tested on: SNU-16 (FGFR2-amplification) cells; test: cell proliferation assay (CellTiterGlo), SNU-16 cells; settings: Homo sapiens, 72 hours
Procedure, shortened: (§3)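 IC50 for growth inhibition, normalized to DMSO-treated cells as viable. Cell number was estimated from ATP luminescence (CellTiterGlo) following incubation with compound at varying concentrations.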

[5] = tested on: UM-UC-14 (FGFR3-S249C) cells; test: cell proliferation assay (CellTiterGlo), UM-UC-14 cells; settings: UMUC14, 72 h
Procedure, shortened: as §3

[6] = tested on: DMS-114 (FGFR1 overexpression) cells; test: cell proliferation assay (CellTiterGlo), DMS-114 cells; settings: Homo sapiens, DMS-114, 72 h
Procedure, shortened: as §3

[7] = tested on: RT-112 (FGFR3-Tacc3 fusion) cells; test: cell proliferation assay (CellTiterGlo), RT-112 cells; settings: Homo sapiens, RT-112, RT112 cells, 72 hours
Procedure, shortened: as §3

| Compound | IC50 [4] [nM] | IC50 [1] [nM] | IC50 [2] [nM] | IC50 [3] [nM] | IC50 [5] [nM] | IC50 [6] [nM] | IC50 [7] [nM] |
| --- | --- | --- | --- | --- | --- | --- | --- |
| C=CC(=O)N1CCC(Cn2cc(-c3cnc4ccc(Oc5ccc6nc(C)[nH]c6c5)cc4n3)cn2)CC1 [Compound 56] | – | ≥ 400 | ≥ 400 | 100 to 400 | – | – | – |
| CC(=O)N1CCC(Cn2cc(-c3cnc4ccc(Oc5ccc6nc(C)[nH]c6c5)c(Cl)c4n3)cn2)CC1 [Compound 34] | – | 20 to 100 | ≥ 400 | < 20 | – | – | – |
| Cc1nc2ccc(Oc3ccc4ncc(-c5cnn(CC6CCOCC6)c5)nc4c3Cl)cc2[nH]1 [Compound 58] | – | 20 to 100 | 100 to 400 | 20 to 100 | – | – | – |
| C=CC(=O)N1CCC(CCn2cc(-c3cnc4ccc(Oc5ccc6nc(C)[nH]c6c5)cc4n3)cn2)CC1 [Compound 54] | – | 100 to 400 | ≥ 400 | 100 to 400 | – | – | – |
| Cc1nc2ccc(Oc3ccc4ncc(-c5cnn(CC6CCN(C)CC6)c5)nc4c3)cc2[nH]1 [Compound 57] | – | 100 to 400 | ≥ 400 | ≥ 400 | – | – | – |
| Cc1nc2ccc(Oc3ccc4ncc(-c5cnn([C@@H]6C[C@H]7CC[C@@H](C6)N7)c5)nc4c3Cl)cc2[nH]1 [Compound 361] | 100 to 400 | – | – | – | 20 to 100 | 100 to 400 | 20 to 100 |
| Cc1nc2ccc(Oc3ccc4ncc(-c5cnn(CC6(NS(C)(=O)=O)CC6)c5)nc4c3Cl)cc2[nH]1 [Compound 99] | 100 to 400 | – | – | – | ≥ 400 | ≥ 400 | 100 to 400 |
| Cc1nc2ccc(Oc3ccc4ncc(-c5cnn(CC6CC(F)(F)C6)c5)nc4c3N3CCOC3=O)c(F)c2[nH]1 [Compound 95] | 100 to 400 | – | – | – | ≥ 400 | ≥ 400 | 100 to 400 |
| Cc1nc2ccc(Oc3ccc4ncc(-c5cnn(CC6CCN(C)S(=O)(=O)C6)c5)nc4c3Cl)cc2[nH]1 (centres unmarked) [Compound 240] | 20 to 100 | – | – | – | 20 to 100 | 100 to 400 | 20 to 100 |
| Cc1nc2ccc(Oc3ccc4ncc(-c5cnn(C6CN(C)C6)c5)nc4c3Cl)cc2[nH]1 [Compound 227] | 20 to 100 | – | – | – | 20 to 100 | ≥ 400 | 20 to 100 |
| CO[C@H]1CC[C@H](Cn2cc(-c3cnc4ccc(Oc5ccc6nc(C)[nH]c6c5)c(Cl)c4n3)cn2)CC1 [Compound 335] | 20 to 100 | – | – | – | 20 to 100 | ≥ 400 | 20 to 100 |
| Cc1nc2ccc(Oc3ccc4ncc(-c5cnn(CC6CC7CC6CO7)c5)nc4c3Cl)cc2[nH]1 (centres unmarked) [Compound 241] | 20 to 100 | – | – | – | 20 to 100 | 100 to 400 | < 20 |
| Cc1nc2ccc(Oc3ccc4ncc(-c5cnn([C@H](C)CO)c5)nc4c3Cl)cc2[nH]1 [Compound 126] | 20 to 100 | – | – | – | 20 to 100 | 100 to 400 | 20 to 100 |
| Cc1nc2ccc(Oc3ccc4ncc(-c5cnn(CCN6CC(F)(F)C6)c5)nc4c3Cl)cc2[nH]1 [Compound 251] | 20 to 100 | – | – | – | 20 to 100 | ≥ 400 | 20 to 100 |
| Cc1nc2ccc(Oc3ccc4ncc(-c5cnn(C6CCN(C(C)C)CC6)c5)nc4c3Cl)cc2[nH]1 [Compound 333] | 20 to 100 | – | – | – | 20 to 100 | ≥ 400 | 20 to 100 |

Now from value to compound, other results behind:

| IC50 [4] [nM] | Compound | IC50 [1] [nM] | IC50 [2] [nM] | IC50 [3] [nM] | IC50 [5] [nM] | IC50 [6] [nM] | IC50 [7] [nM] |
| --- | --- | --- | --- | --- | --- | --- | --- |
| < 20 | Cc1nc2ccc(Oc3ccc4ncc(-c5cnn(CC6CC(F)(F)C6)c5)nc4c3C3=CCOC3)cc2[nH]1 [Compound 179] | – | – | – | < 20 | 100 to 400 | < 20 |
| < 20 | Cc1nc2ccc(Oc3ccc4ncc(-c5cnn([C@H]6CC7(C[C@@H](O)C7)C6)c5)nc4c3Cl)c(F)c2[nH]1 (some centres unmarked) [Compound 127] | – | – | – | < 20 | 100 to 400 | < 20 |
| 20 to 100 | Cc1nc2cc(Oc3ccc4ncc(-c5cnn(CC6(O)CCN(C7COC7)CC6)c5)nc4c3Cl)ccc2[nH]1 [Compound 248] | – | – | – | 20 to 100 | 100 to 400 | 20 to 100 |
| 20 to 100 | Cc1nc2ccc(Oc3ccc4ncc(-c5cnn(C[C@]67C[C@H](CO6)C7)c5)nc4c3Cl)cc2[nH]1 [Compound 337] | – | – | – | 20 to 100 | ≥ 400 | 20 to 100 |
| 20 to 100 | Cc1nc2ccc(Oc3ccc4ncc(-c5cnn(CC(C)(O)C(F)(F)F)c5)nc4c3Cl)c(F)c2[nH]1 (centres unmarked) [Compound 122] | – | – | – | 20 to 100 | ≥ 400 | 20 to 100 |
| 20 to 100 | Cc1nc2ccc(Oc3ccc4ncc(-c5cnn(CC6(O)CCC6)c5)nc4c3Cl)c(F)c2[nH]1 [Compound 140] | – | – | – | 20 to 100 | ≥ 400 | 20 to 100 |
| 20 to 100 | Cc1nc2ccc(Oc3ccc4ncc(-c5cnn(CC6(O)CC6)c5)nc4c3Cl)cc2[nH]1 [Compound 259] | – | – | – | 20 to 100 | ≥ 400 | 20 to 100 |
| 20 to 100 | Cc1nc2ccc(Oc3ccc4ncc(-c5cnn(CC6CN(CC(=O)N7CC(O)C7)C6)c5)nc4c3Cl)cc2[nH]1 [Compound 314] | – | – | – | 100 to 400 | 100 to 400 | 20 to 100 |
| 20 to 100 | Cc1nc2ccc(Oc3ccc4ncc(-c5cnn(CC6OCCCO6)c5)nc4c3Cl)cc2[nH]1 [Compound 389] | – | – | – | 100 to 400 | ≥ 400 | 20 to 100 |
| 20 to 100 | Cc1nc2ccc(Oc3ccc4ncc(-c5cnn([C@H]6CCN(C7COC7)C[C@@H]6F)c5)nc4c3C)cc2[nH]1 [Compound 212] | – | – | – | 20 to 100 | 100 to 400 | 20 to 100 |
| 20 to 100 | Cc1nc2ccc(Oc3ccc4ncc(-c5cnn(CC(=O)N6CCOC(C)(C)C6)c5)nc4c3Cl)cc2[nH]1 [Compound 188] | – | – | – | 20 to 100 | ≥ 400 | 20 to 100 |
| 20 to 100 | Cc1nc2ccc(Oc3ccc4ncc(-c5cnn(CC(C)(C)C#N)c5)nc4c3Cl)cc2[nH]1 [Compound 272] | – | – | – | 20 to 100 | ≥ 400 | 20 to 100 |
| 20 to 100 | Cc1nc2ccc(Oc3ccc4ncc(-c5cnn(CC(C)(C)O)c5)nc4c3Cl)cc2[nH]1 [Compound 280] | – | – | – | 20 to 100 | ≥ 400 | 20 to 100 |
| < 20 | Cc1nc2ccc(Oc3ccc4ncc(-c5cnn([C@H]6C[C@@H](N7CCOCC7)C6)c5)nc4c3Cl)cc2[nH]1 [Compound 323] | – | – | – | 20 to 100 | ≥ 400 | 20 to 100 |
| 20 to 100 | Cc1nc2ccc(Oc3ccc4ncc(-c5cnn(C6CCC(F)(F)CC6)c5)nc4c3Cl)cc2[nH]1 [Compound 358] | – | – | – | 100 to 400 | ≥ 400 | 100 to 400 |
| 20 to 100 | Cc1nc2ccc(Oc3ccc4ncc(-c5cnn(C6CC7(C6)CN(C6COC6)C7)c5)nc4c3Cl)cc2[nH]1 [Compound 218] | – | – | – | 20 to 100 | 100 to 400 | 20 to 100 |
| 20 to 100 | Cc1nc2ccc(Oc3ccc4ncc(-c5cnn(CC(=O)N6CC[C@H](F)C6)c5)nc4c3Cl)cc2[nH]1 [Compound 284] | – | – | – | 20 to 100 | ≥ 400 | 20 to 100 |
| 20 to 100 | Cc1nc2ccc(Oc3ccc4ncc(-c5cnn(C6CCNC(C)(C)C6)c5)nc4c3Cl)cc2[nH]1 (centres unmarked) [Compound 249] | – | – | – | 20 to 100 | ≥ 400 | 20 to 100 |
| 20 to 100 | CO[C@H]1CC[C@@H](Cn2cc(-c3cnc4ccc(Oc5ccc6nc(C)[nH]c6c5)c(Cl)c4n3)cn2)CC1 [Compound 336] | – | – | – | 20 to 100 | ≥ 400 | 20 to 100 |
| 20 to 100 | Cc1nc2ccc(Oc3ccc4ncc(-c5cnn(C6CC(N7CC(O)C7)C6)c5)nc4c3Cl)cc2[nH]1 (centres unmarked) [Compound 309] | – | – | – | 20 to 100 | 100 to 400 | 20 to 100 |
| < 20 | Cc1nc2ccc(Oc3ccc4ncc(-c5cnn([C@H]6C[C@@H](O)C6)c5)nc4c3Cl)c(F)c2[nH]1 [Compound 148] | – | – | – | < 20 | 20 to 100 | < 20 |
| < 20 | Cc1nc2ccc(Oc3ccc4ncc(-c5cnn([C@H](C)CO)c5)nc4c3Cl)c(F)c2[nH]1 [Compound 107] | – | – | – | < 20 | 100 to 400 | < 20 |
